Data set [1] is described as follows: physchem. In kind it is physicochemical. As to the method:
An Orion 710A pH-meter equipped with a Metrohm combined electrode (type 6.0234.100) and a Metrohm 665 Dosimat burette were used for the UV–vis titrations at 25.0 ± 0.1 °C. Ionic strength of 0.10 M (KCl) was used to keep the activity coefficients constant. The titrations were performed with carbonate-free KOH solution of known concentration (0.10 M) with 30% (v/v) DMSO content. […] The average water ionization constant (pKw) is 14.54 ± 0.05 in the 30% (v/v) DMSO/H2O mixture. Argon was always passed over the solutions during the titrations. An Agilent Cary 8454 diode array spectrophotometer was used to record the UV–vis spectra at an interval of 200–800 nm. The path length was 2 cm. Spectrophotometric titrations were performed using a 0.1 M KOH titrant solution with 30% (v/v) DMSO on samples with 30% (v/v) DMSO containing HCl, KCl and the ligand at 20 μM concentration in the pH range 2.0–12.5 in the absence or in the presence of 1 or 0.5 equiv. Cu(II) ions. Proton dissociation constants (Ka) of the TSC ligands, the overall stability constants (β) of the Cu(II) complexes and the UV–vis spectra of the individual species were calculated by the computer program PSEQUAD [41] as was done in our previous works.

A short description of data set [2]: direct redox reaction of the Cu(II) complexes with GSH (UV–vis, anaerobic). Type of data set: physicochemical. The following applies: Cu(II) complex (25 µM) of the named ligand with GSH (1.25 mM), pH 7.4, anaerobic, 30% (v/v) DMSO/H2O, 25.0 °C. In outline:
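Complexes mixed with GSH or ascorbic acid at 25.0 ± 0.1 °C, pH 7.40 (10 mM HEPES, 0.1 M KCl) in a sealed tandem cuvette, both compartments argon-deoxygenated 10 min before mixing. UV–vis absorbance followed at complex λmax until stable; single-exponential fit, kobs taken as slope of ln(A/A0) versus t.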

Data set [3] is described as follows: DPPH free radical scavenging assay. In outline:
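DPPH at 50 µM final mixed with compound (5–50 µM final) in ethanol at 25.0 ± 0.1 °C in tandem cuvette, read spectrophotometrically. Antioxidant activity percentage, IC50 (concentration reducing 50% of DPPH) and Trolox equivalent capacity derived; Trolox as positive control.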

For data set [4], the system named is E. faecalis ATCC 29212. Description: MIC determination. Type of data set: cell-based, Enterococcus faecalis. The settings on record: Enterococcus faecalis, ATCC29212; Gram-positive E. faecalis ATCC 29212; Mueller Hinton Broth. Summed up:
(§1)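 Broth microdilution in Mueller Hinton Broth, two-fold serial dilutions starting at 100 µM compound (from 10 mM stocks in 90% DMSO). Each well inoculated with a 10^−4 dilution of overnight culture. MIC read per prior lab method.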

The subject of data set [5] is S. aureus ATCC 25928. Briefly: MIC determination. In kind it is cell-based, Staphylococcus aureus. The following applies: Gram-positive S. aureus ATCC 25928, Mueller Hinton Broth. In outline:
as §1

Data set [6] relates to A549, MCF-7, MCF-7 KCR and DU-145 cells. Briefly: γH2AX immunostaining (DNA double-strand breaks). The settings on record: 20 µM, 3 h. In kind it is cell-based, human. Summed up:
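Cells seeded at 1 × 10^5 per well on coverslips, then fixed with 4% formaldehyde, permeabilized with 0.3% Triton X-100 and blocked in 5% BSA. Stained with anti-γH2AX (1:300) and Alexa 488 secondary (1:600); fluorescence intensity measured by confocal microscopy.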

In brackets after ≈: the same amount, converted by molar mass. Where only a bound is given, the exact number is not on record here.

As for `C[C@]12CC[C@@H]3c4cc(C=NNC(N)=S)c(O)cc4CC[C@H]3[C@@H]1CCC2O` (stereo partly shown) [estradiol-TSC, 2-((3,17 Dihydroxy-estra-1,3,5(10)-triene-2-yl)methylene)Hydrazine-1-carbothioamide], the melting point fell in the range of 229 to 231 °C. This compound yielded a pKa in data set [1] of 9.23 ± 0.03. In data set [2], this compound registered a kobs of 0.07 ± 0.03 min⁻¹. Also, the “TEAC (Trolox equivalent antioxidant capacity)” value in data set [3] (DPPH assay in ethanol, 25 °C) stood at 0.8. Also, in data set [3] (DPPH:compound = 1:1 ratio after 30 min, ethanol, 25 °C), the “% Scavenging Effect” value was found to be 72.0%. This compound also had an IC50 in data set [3] (in ethanol, T = 25 °C, cDPPH = 50 µM, ccompound = 5−50 µM) of 14.6 µM. Moreover, the minimal inhibitory concentration (MIC) in data set [4] is greater than 100 µM. Moreover, in data set [5], the MIC is reported as 25 µM (≈ 9.34 µg/mL). Also, in data set [5] (Staphylococcus aureus, ATCC25928), 25 µM (≈ 9.34 µg/mL) was the least that counted as inhibitory (MIC). Also, the “DNA double-strand breaks (γH2AX) vs untreated control cells” value in data set [6] is “None of these treatments caused a higher degree of DNA damage”.

The values above are taken from article PMC9822434, “Estradiol-Based Salicylaldehyde (Thio)Semicarbazones and Their Copper Complexes with Anticancer, Antibacterial and Antioxidant Activities” (Molecules, 2022).
